ChEMBL document CHEMBL1150032, “-hydroxy- and -ketoester functionalized thrombin inhibitors” (Bioorg Med Chem Lett, 1992)

How the values were obtained:
[1] = target: T1, Prothrombin (Homo sapiens, UniProt P00734); assay: Inhibitory concentration against thrombin when incubated with the compound for 3 min in batch 2
[2] = Inhibitory concentration required to double thrombin clotting time in batch 2; format: functional, Homo sapiens
[3] = Inhibitory concentration required to double thrombin clotting time in batch 1; format: functional, Homo sapiens
[4] = target: T1, Prothrombin; assay: Inhibitory concentration against thrombin when incubated with the compound for 3 min in batch 1
[5] = target: T1, Prothrombin; assay: Inhibitory concentration against thrombin when incubated with the compound for 3 min
[6] = Inhibitory concentration required to double thrombin clotting time; format: functional, Homo sapiens
[7] = target: T1, Prothrombin; assay: Overall Inhibitory constant against thrombin was determined

Compound	IC50 [1] [nM]	IC50 [2] [nM]	IC50 [3] [nM]	IC50 [4] [nM]	IC50 [5] [nM]	IC50 [6] [nM]	Ki [7] [nM]
COC(=O)[C@@H](O)[C@H](CCCCN)NC(=O)[C@@H]1CCCN1C(=O)[C@H](N)Cc1ccccc1	20200	> 300000	> 300000	30500	–	–	–
COC(=O)C(O)[C@H](CCCCN=C(N)N)NC(=O)[C@@H]1CCCN1C(=O)[C@H](N)Cc1ccccc1 (stereo not given in full)	–	–	–	–	48000	–	–
NC(N)=NCCC[C@@H](C=O)NC(=O)[C@@H]1CCCN1C(=O)[C@H](N)Cc1ccccc1	–	–	–	–	49	400	–
COC(=O)C(O)(OC)C(CCCCN)NC(=O)[C@@H]1CCCN1C(=O)[C@H](N)Cc1ccccc1 (stereo not given in full)	–	–	–	–	32	390	1.7
